Experimental data: patent EP0950398A2, “Use of esters as dispersants or solvents in sunscreens and solar protection pigments” (Henkel Kommanditgesellschaft auf Aktien, priority 1998, dated 1999)

Assay: UV absorption of 5 ppm Octylmethoxy Cinnamate dissolved in different oil bodies (absorption increase)
Type: physicochemical
Details: for Absorptionssteigerung: 5 ppm Octylmethoxy Cinnamate in the oil body, 1-cm cuvette, 308 nm, absorption in Mineralöl taken as 100 %
Description: Zur Bestimmung der Absorptionssteigerung wurden Lösungen von 5 ppm Octylmethoxy Cinnamate in verschiedenen Ölkörpern hergestellt und die UV-Absorption in einer 1-cm Küvette bei einer Wellenlänge von 308 nm bestimmt. Die Absorption in Mineralöl wurde dazu als 100 % angenommen und alle übrigen Absorptionen dazu ins Verhältnis gesetzt. Des weiteren wurden verschiedene UV-Filter (OT = Octyl Triazone; BMDBM = Butyl Methoxydibenzoylmethane; B3 = Benzophenone-3 und 4MBC = 4-Methylbenzyliden Camphor) in den Ölkörpern in der Wärme gelöst und die Löslichkeit bei 15°C bestimmt. Die Ergebnisse sind in Tabelle 1 zusammengefaßt. Tabelle 1

| SMILES | Absorptionssteigerung [%] | UV-Absorption unterstützt (result in words, comparison of all tested oil bodies) |
| --- | --- | --- |
| CCCCOC(=O)CCCCC(=O)OCCCC [Dibutyl Adipate] | 117 | am stärksten |
| CCCCCCCCOCCCCCCCC [Dicaprylyl Ether, reference compound] | 105 | – |
